In ChEMBL document CHEMBL6120977, “Structure-Affinity-Pharmacokinetics Relationships of Novel 18F-Labeled 1,4-Diazepane Derivatives for Orexin 1 Receptor Imaging” (J Med Chem, 2024):

Tests used:
Format in all cases: cell-based
[1] = target: T1, Orexin/Hypocretin receptor type 1 (Homo sapiens, UniProt O43613); assay: Displacement of […]5IBOM from OX1R (unknown origin) transfected in CHO cells assessed as inhibition constant incubated for 1.5 hrs by automated gamma-counter analysis
T1 sequence (O43613 whole entry): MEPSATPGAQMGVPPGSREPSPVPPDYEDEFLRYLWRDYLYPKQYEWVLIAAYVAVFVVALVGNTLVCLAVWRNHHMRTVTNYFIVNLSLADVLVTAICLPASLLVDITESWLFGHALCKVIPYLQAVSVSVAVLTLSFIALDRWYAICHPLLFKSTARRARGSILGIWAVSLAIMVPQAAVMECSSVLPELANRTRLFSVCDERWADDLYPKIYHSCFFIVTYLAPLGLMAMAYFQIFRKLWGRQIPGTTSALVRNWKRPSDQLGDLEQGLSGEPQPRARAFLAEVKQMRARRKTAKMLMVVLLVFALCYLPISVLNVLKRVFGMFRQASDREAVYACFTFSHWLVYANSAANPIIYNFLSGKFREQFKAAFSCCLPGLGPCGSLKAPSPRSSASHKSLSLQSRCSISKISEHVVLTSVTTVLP

[2] = target: T2, Orexin receptor type 2 (Homo sapiens, UniProt O43614); assay: Displacement of […]5IBOM from OX2R (unknown origin) transfected in CHO cells assessed as inhibition constant incubated for 1.5 hrs by automated gamma-counter analysis
T2 sequence (O43614 whole entry): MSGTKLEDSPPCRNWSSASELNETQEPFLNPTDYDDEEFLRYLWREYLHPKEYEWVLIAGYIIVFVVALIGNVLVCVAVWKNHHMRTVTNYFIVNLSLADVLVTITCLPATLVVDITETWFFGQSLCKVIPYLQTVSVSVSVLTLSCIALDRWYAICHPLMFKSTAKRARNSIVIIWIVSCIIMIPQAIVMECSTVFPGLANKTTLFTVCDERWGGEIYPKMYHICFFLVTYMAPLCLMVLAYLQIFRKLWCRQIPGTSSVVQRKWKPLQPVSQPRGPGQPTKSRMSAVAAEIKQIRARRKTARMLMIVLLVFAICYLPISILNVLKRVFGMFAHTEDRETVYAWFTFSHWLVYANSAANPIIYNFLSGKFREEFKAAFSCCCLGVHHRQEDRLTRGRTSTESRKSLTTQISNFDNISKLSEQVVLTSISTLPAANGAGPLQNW

[3] = Selectivity ratio of Ki for OX2R (unknown origin) transfected in CHO cells to Ki for OX1R (unknown origin) transfected in CHO cells

SMILES: C[C@H]1CN(c2nc3ccc(F)cc3s2)CCCN1C(=O)c1cc(F)ccc1-n1nccn1
- Ki [1]: 1.89 nM
- Ki [2]: 15.5 nM
- Ratio Ki [3]: 8.19

SMILES: C[C@H]1CN(c2nc3ccc(F)cc3s2)CCCN1C(=O)c1cc(C(F)(F)F)ccc1-n1nccn1
- Ki [1]: 6.67 nM
- Ki [2]: 19 nM
- Ratio Ki [3]: 2.85

SMILES: Cc1ccc(-n2nccn2)c(C(=O)N2CCCN(c3nc4ccc(F)cc4o3)C[C@@H]2C)c1
- Ki [1]: 17.7 nM
- Ki [2]: 156 nM
- Ratio Ki [3]: 8.8

SMILES: C[C@H]1CN(c2nc3ccc(F)cc3s2)CCCN1C(=O)c1ccccc1-n1nccn1
- Ki [1]: 0.64 nM
- Ki [2]: 5.17 nM
- Ratio Ki [3]: 8.08

SMILES: Cc1ccc(-n2nccn2)c(C(=O)N2CCCN(c3nc4cc(F)ccc4s3)C[C@@H]2C)c1
- Ki [1]: 1.14 nM
- Ki [2]: 12.8 nM
- Ratio Ki [3]: 11.3
